Converted amounts (≈) assume the structure as drawn. Read-outs that look alike come from different tables or passages of the source. Positions of bridges follow the written chain, without caps; N, C: chain ends. Non-standard residues stand in square brackets, D forms with d. Residues, ends and D or L forms follow the SMILES beside them. *: point of attachment. Phenylacetyl(4-CF3) = O=C(Cc1ccc(C(F)(F)F)cc1)*; Benzoyl(3-CF3) = O=C(c1cccc(C(F)(F)F)c1)*; Benzoyl(3-Ph) = O=C(c1cccc(-c2ccccc2)c1)*; Octanoyl(6-Me) = CCC(C)CCCCC(=O)*; X17 = Cc1cc(C(=O)*)cc(C(F)(F)F)c1; X16 = O=C(c1cc(F)c(F)c(F)c1)*; dNle = CCCC[C@@H](N)C(=O)O; Octanoyl = CCCCCCCC(=O)*; Dab = NCC[C@H](N)C(=O)O; Abu = CC[C@H](N)C(=O)O; Dap = NC[C@H](N)C(=O)O
Tests used:
[1] = tested on: Acinetobacter baumannii
How it was run: (§1)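 Broth microdilution, CAMHB, per CLSI M100-S18; compounds as TFA salts; polymyxin B (sulphate) control; read-out MIC.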

[2] = tested on: Enterobacter cloacae
How it was run: as §1

[3] = tested on: Klebsiella pneumoniae
How it was run: as §1

[4] = tested on: Pseudomonas aeruginosa
How it was run: as §1

[5] = tested on: P. aeruginosa ATCC 27853; assay: In vivo efficacy in mouse blood infection model (neutropenic Swiss mice); conditions: compound, free base 4 mg/kg intravenously 2 h after inoculation, blood at 4 h
How it was run: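 Activity expressed as Δlog10 CFU/mL blood, treated minus saline control, 4 h after a single 4 mg/kg (free base) i.v. dose given 2 h post-infection. Bloodstream infection from i.v. early log-phase inoculum in Swiss mice made neutropenic by i.p. cyclophosphamide on days −4 (150 mg/kg) and −1 (100 mg/kg).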

| Structure (SMILES) | MIC [1] [µg/mL] | Minimum inhibitory concentration, Ab A ATCC 17978 [1] [µg/mL] | Minimum inhibitory concentration, Ab ATCC 19606 [1] [µg/mL] | Minimum inhibitory concentration, Ab FADDI-AB034 [1] [µg/mL] | Minimum inhibitory concentration, Ec FADDI-EC001 [2] [µg/mL] | Minimum inhibitory concentration, Ec FADDI-EC003 [2] [µg/mL] | Minimum inhibitory concentration, Ec FADDI-EC006 [2] [µg/mL] | MIC [3] [µg/mL] | MIC [4] [µg/mL] | Minimum inhibitory concentration, Pa ATCC 27853 [4] [µg/mL] | Minimum inhibitory concentration, Pa FADDI-PA022 [4] [µg/mL] | Minimum inhibitory concentration, Pa FADDI-PA025 [4] [µg/mL] | Δ log (Treated-Control at 4 h) [5] [log10 CFU/mL] | also measured |
| --- | --- | --- | --- | --- | --- | --- | --- | --- | --- | --- | --- | --- | --- | --- |
| CC[C@@H]1NC(=O)[C@@H](CC(C)C)NC(=O)[C@H](CCN)NC(=O)[C@@H](NC(=O)[C@H](CN)NC(=O)[C@@H](NC(=O)[C@H](CCN)NC(=O)c2cc(C)cc(C(F)(F)F)c2)[C@@H](C)O)CCNC(=O)[C@H]([C@@H](C)O)NC(=O)[C@H](CCN)NC(=O)[C@H](CCN)NC1=O [Compound 120] (X17-[Dab]T[Dap][Dab][Dab][dL][Abu][Dab][Dab]T; lactam 4-C) | 1 (≈ 0.852 µM) | 0.5 (≈ 0.426 µM) | 1 (≈ 0.852 µM) | 0.5 (≈ 0.426 µM) | 0.25 (≈ 0.213 µM) | 0.25 (≈ 0.213 µM) | 0.25 (≈ 0.213 µM) | 0.5 (≈ 0.426 µM) | 1 (≈ 0.852 µM) | 1 (≈ 0.852 µM) | 1 (≈ 0.852 µM) | 2 (≈ 1.7 µM) | −3.20 | – |
| CCCC[C@H]1NC(=O)[C@H](CCN)NC(=O)[C@@H](NC(=O)[C@H](CN)NC(=O)[C@@H](NC(=O)[C@H](CCN)NC(=O)c2cccc(C(F)(F)F)c2)[C@@H](C)O)CCNC(=O)[C@H]([C@@H](C)O)NC(=O)[C@H](CCN)NC(=O)[C@H](CCN)NC(=O)[C@H](CC)NC1=O [Compound 121] ({Benzoyl(3-CF3)}-[Dab]T[Dap][Dab][Dab][dNle][Abu][Dab][Dab]T; lactam 4-C) | 0.5 (≈ 0.431 µM) | 0.5 (≈ 0.431 µM) | 0.5 (≈ 0.431 µM) | 0.5 (≈ 0.431 µM) | 0.25 (≈ 0.216 µM) | 0.25 (≈ 0.216 µM) | 0.25 (≈ 0.216 µM) | 0.25 (≈ 0.216 µM) | 0.5 (≈ 0.431 µM) | 0.5 (≈ 0.431 µM) | 1 (≈ 0.863 µM) | 2 (≈ 1.73 µM) | −2.81 | – |
| C[C@@H](O)[C@@H]1NC(=O)[C@H](CCN)NC(=O)[C@H](CCN)NC(=O)[C@H]([C@@H](C)O)NC(=O)[C@@H](Cc2ccccc2)NC(=O)[C@H](CCN)NC(=O)[C@@H](NC(=O)[C@H](CN)NC(=O)[C@@H](NC(=O)[C@H](CCN)NC(=O)c2cccc(C(F)(F)F)c2)[C@@H](C)O)CCNC1=O [Compound 124] ({Benzoyl(3-CF3)}-[Dab]T[Dap][Dab][Dab][dF]T[Dab][Dab]T; lactam 4-C) | 1 (≈ 0.827 µM) | 1 (≈ 0.827 µM) | 1 (≈ 0.827 µM) | 0.25 (≈ 0.207 µM) | 0.5 (≈ 0.413 µM) | <0.125 | 0.5 (≈ 0.413 µM) | 0.25 (≈ 0.207 µM) | 0.25 (≈ 0.207 µM) | 0.25 (≈ 0.207 µM) | 0.5 (≈ 0.413 µM) | 2 (≈ 1.65 µM) | −3.36 | – |
| CCCC[C@H]1NC(=O)[C@H](CCN)NC(=O)[C@@H](NC(=O)[C@H](CN)NC(=O)[C@@H](NC(=O)[C@H](CCN)NC(=O)c2cccc(C(F)(F)F)c2)[C@@H](C)O)CCNC(=O)[C@H]([C@@H](C)O)NC(=O)[C@H](CCN)NC(=O)[C@H](CCN)NC(=O)[C@H](C)NC1=O [Compound 125] ({Benzoyl(3-CF3)}-[Dab]T[Dap][Dab][Dab][dNle]A[Dab][Dab]T; lactam 4-C) | 1 (≈ 0.873 µM) | 1 (≈ 0.873 µM) | 1 (≈ 0.873 µM) | 0.5 (≈ 0.437 µM) | 0.5 (≈ 0.437 µM) | 0.5 (≈ 0.437 µM) | 1 (≈ 0.873 µM) | 0.25 (≈ 0.218 µM) | 0.25 (≈ 0.218 µM) | 0.25 (≈ 0.218 µM) | 0.5 (≈ 0.437 µM) | 2 (≈ 1.75 µM) | −3.66 | – |
| CC[C@@H]1NC(=O)[C@@H](CC(C)C)NC(=O)[C@H](CCN)NC(=O)[C@@H](NC(=O)[C@H](CN)NC(=O)[C@@H](NC(=O)[C@H](CCN)NC(=O)Cc2ccc(C(F)(F)F)cc2)[C@@H](C)O)CCNC(=O)[C@H]([C@@H](C)O)NC(=O)[C@H](CCN)NC(=O)[C@H](CCN)NC1=O [Compound 127] ({Phenylacetyl(4-CF3)}-[Dab]T[Dap][Dab][Dab][dL][Abu][Dab][Dab]T; lactam 4-C) | 4 (≈ 3.41 µM) | 1 (≈ 0.852 µM) | 4 (≈ 3.41 µM) | 0.5 (≈ 0.426 µM) | <0.125 | 0.25 (≈ 0.213 µM) | 0.5 (≈ 0.426 µM) | 0.5 (≈ 0.426 µM) | 0.5 (≈ 0.426 µM) | 0.5 (≈ 0.426 µM) | 0.5 (≈ 0.426 µM) | 16 (≈ 13.6 µM) | −3.51 | – |
| CCCCCCCC(=O)N[C@@H](CCN)C(=O)N[C@H](C(=O)N[C@@H](CN)C(=O)N[C@H]1CCNC(=O)[C@H]([C@@H](C)O)NC(=O)[C@H](CCN)NC(=O)[C@H](CCN)NC(=O)[C@H](CC)NC(=O)[C@@H](Cc2ccccc2)NC(=O)[C@H](CCN)NC1=O)[C@@H](C)O [Compound 130] (Octanoyl-[Dab]T[Dap][Dab][Dab][dF][Abu][Dab][Dab]T; lactam 4-C) | 0.25 (≈ 0.218 µM) | 0.25 (≈ 0.218 µM) | 0.25 (≈ 0.218 µM) | 0.25 (≈ 0.218 µM) | 0.25 (≈ 0.218 µM) | 0.25 (≈ 0.218 µM) | 1 (≈ 0.872 µM) | 0.5 (≈ 0.436 µM) | 0.5 (≈ 0.436 µM) | 0.5 (≈ 0.436 µM) | 2 (≈ 1.74 µM) | 2 (≈ 1.74 µM) | −3.66 | – |
| CC[C@@H]1NC(=O)[C@@H](CC(C)C)NC(=O)[C@H](CCN)NC(=O)[C@@H](NC(=O)[C@H](CN)NC(=O)[C@@H](NC(=O)[C@H](CCN)NC(=O)c2cc(F)c(F)c(F)c2)[C@@H](C)O)CCNC(=O)[C@H]([C@@H](C)O)NC(=O)[C@H](CCN)NC(=O)[C@H](CCN)NC1=O [Compound 133] (X16-[Dab]T[Dap][Dab][Dab][dL][Abu][Dab][Dab]T; lactam 4-C; N-terminus assumed) | 2 (≈ 1.75 µM) | 0.5 (≈ 0.437 µM) | 2 (≈ 1.75 µM) | 0.25 (≈ 0.218 µM) | 0.5 (≈ 0.437 µM) | 0.25 (≈ 0.218 µM) | 0.25 (≈ 0.218 µM) | 0.25 (≈ 0.218 µM) | 0.5 (≈ 0.437 µM) | 0.5 (≈ 0.437 µM) | 0.5 (≈ 0.437 µM) | 2 (≈ 1.75 µM) | −3.23 | – |
| CC[C@@H]1NC(=O)[C@@H](CC(C)C)NC(=O)[C@H](CCN)NC(=O)[C@@H](NC(=O)[C@H](CN)NC(=O)[C@@H](NC(=O)[C@H](CCN)NC(=O)c2cccc(-c3ccccc3)c2)[C@@H](C)O)CCNC(=O)[C@H]([C@@H](C)O)NC(=O)[C@H](CCN)NC(=O)[C@H](CCN)NC1=O [Compound 138] ({Benzoyl(3-Ph)}-[Dab]T[Dap][Dab][Dab][dL][Abu][Dab][Dab]T; lactam 4-C) | – | – | – | – | – | – | – | – | – | – | – | – | −2.98 | MIC ([1]; A. baumannii ATCC 19606): 1 µg/mL (≈ 0.857 µM); Minimum inhibitory concentration (MIC), Ab ATCC 17978 ([1]; Acinetobacter baumannii ATCC 17978, broth microdilution in CAMHB, TFA salt): 0.5 µg/mL; Minimum inhibitory concentration (MIC), Ab ATCC 19606 ([1]; Acinetobacter baumannii ATCC 19606, broth microdilution in CAMHB, TFA salt): 1 µg/mL; Minimum inhibitory concentration (MIC), Ab FADDI-AB034 ([1]; Acinetobacter baumannii FADDI-AB034, broth microdilution in CAMHB, TFA salt): 0.5 µg/mL; Minimum inhibitory concentration (MIC), Ec FADDI-EC001 ([2]; Enterobacter cloacae FADDI-EC001, broth microdilution in CAMHB, TFA salt): 0.5 µg/mL; Minimum inhibitory concentration (MIC), Ec FADDI-EC003 ([2]; Enterobacter cloacae FADDI-EC003, broth microdilution in CAMHB, TFA salt): 1 µg/mL; Minimum inhibitory concentration (MIC), Ec FADDI-EC006 ([2]; Enterobacter cloacae FADDI-EC006, broth microdilution in CAMHB, TFA salt): 0.5 µg/mL; MIC ([3]; K. pneumoniae FADDI-KP032): 0.5 µg/mL (≈ 0.428 µM); MIC ([4]; P. aeruginosa ATCC 27853): 1 µg/mL (≈ 0.857 µM); Minimum inhibitory concentration (MIC), Pa ATCC 27853 ([4]; Pseudomonas aeruginosa ATCC 27853, broth microdilution in CAMHB, TFA salt): 1 µg/mL; Minimum inhibitory concentration (MIC), Pa FADDI-PA022 ([4]; Pseudomonas aeruginosa FADDI-PA022, broth microdilution in CAMHB, TFA salt): 2 µg/mL; Minimum inhibitory concentration (MIC), Pa FADDI-PA025 ([4]; Pseudomonas aeruginosa FADDI-PA025, broth microdilution in CAMHB, TFA salt): 1 µg/mL |
| CCC(C)CCCCC(=O)N[C@@H](CCN)C(=O)N[C@H](C(=O)N[C@@H](CN)C(=O)N[C@H]1CCNC(=O)[C@H]([C@@H](C)O)NC(=O)[C@H](CCN)NC(=O)[C@H](CCN)NC(=O)[C@H](CC)NC(=O)[C@@H](CC(C)C)NC(=O)[C@H](CCN)NC1=O)[C@@H](C)O (stereo partly drawn) [Compound 139] ({Octanoyl(6-Me)}-[Dab]T[Dap][Dab][Dab][dL][Abu][Dab][Dab]T; lactam 4-C) | 0.5 (≈ 0.443 µM) | – | – | – | – | – | – | <0.125 | 1 (≈ 0.887 µM) | – | – | – | −3.19 | Minimum inhibitory concentration (MIC), Ab ATCC 17978 [1]: 0.25 µg/mL (≈ 0.222 µM); Minimum inhibitory concentration (MIC), Ab ATCC 19606 [1]: 0.5 µg/mL (≈ 0.443 µM); Minimum inhibitory concentration (MIC), Ab FADDI-AB034 [1]: 0.25 µg/mL (≈ 0.222 µM); Minimum inhibitory concentration (MIC), Ec FADDI-EC001 [2]: 0.5 µg/mL (≈ 0.443 µM); Minimum inhibitory concentration (MIC), Ec FADDI-EC003 [2]: 0.25 µg/mL (≈ 0.222 µM); Minimum inhibitory concentration (MIC), Ec FADDI-EC006 [2]: 1 µg/mL (≈ 0.887 µM); Minimum inhibitory concentration (MIC), Pa ATCC 27853 [4]: 1 µg/mL (≈ 0.887 µM); Minimum inhibitory concentration (MIC), Pa FADDI-PA022 [4]: 2 µg/mL (≈ 1.77 µM); Minimum inhibitory concentration (MIC), Pa FADDI-PA025 [4]: 1 µg/mL (≈ 0.887 µM) |

From USRE48335E1, “Polymyxin derivatives as antimicrobial compounds” (priority 2014, dated 2020)
